Measurements published in US20080319000A1, “Use of 3,1IB-Cis-Dihydrotetrabenazine for the Treatment of Symptoms of Huntingtons Disease” (CAMBRIDGE LABORATORIES (IRELAND) LIMITED, priority 2005, published 2008).

Key:
[1] = tested on: Male Sprague-Dawley rats; experiment: Spontaneous locomotor activity in rats (sedative properties); type: in vivo; conditions: for Inactivity Duration / Large movements Duration / Large movements Occurrence: rats, 20 min period, mean ± SEM n=12
Method: A study was carried out in rats to determine whether the dihydrotetrabenazine isomers of the invention have sedative properties. […] Male Sprague-Dawley rats, (Charles River Laboratories, Saint-Germain/L'Arbresle, France), weighing 200-250 g at the beginning of the study, were used for the studies. […] The rats were allowed to acclimatize to their conditions for at least five days before commencement of the study. The rats received food ([…], France, ref. 811002) and water (tap water in water bottle) ad libitum. Solutions of each test compound in corn oil were freshly prepared on the day of the experiment. Haloperidol was prepared in hydroxyethylcellulose, 0.5% in deionized water. Either the vehicle or the test compounds were administered as a single dose (0.3, 1, 3 and 10 mg/kg, 2 mL/kg i.p.). The reference compound haloperidol (1 mg/kg) was administered i.p. […] The animals were placed in plexiglass cages under a video camera in a room with low light intensity (maximum 50 lux). At forty five minutes and 3 hours after administration, locomotor activity was determined during 20 minute periods using a video image analyzer (Videotrack, View Point, France). […] The number and duration of ambulatory movements and duration of inactivity was measured. At the end of the locomotor activity measurement (45 minutes and 3 hours), palpebral closure and arousal were be scored as follows in the plexiglass cage: […] Image tracking was performed using a video camera placed above the plexiglass cage, recording overall locomotor activity. […] The results were expressed as the means ±SEMs of the 12 individual values. Statistical analyses were carried out using ANOVA (one way) and Dunnett's t-test and with the non parametric test of Kruskal-Wallis followed by a Mann & Whitney U-test for the sedation cotation. A p value of p<0.05 was taken as indicating significance. Group size n=12 Group 1: Reference, haloperidol (1 mg/kg i.p.) Group 2: Vehicle control group (2 ml/kg i.p.) Group 3: tetrabenazine (0.3 mg/kg i.p) Group 4: tetrabenazine (1 mg/kg i.p) Group 5: tetrabenazine (3 mg/kg i.p) Group 6: tetrabenazine (10 mg/kg i.p) Group 7: […]

[2] = target: T1, catechol O-methyl transferase (COMT) (Homo sapiens, UniProt P21964); experiment: COMT inhibition; type: biochemical
T1 sequence (P21964 1-271): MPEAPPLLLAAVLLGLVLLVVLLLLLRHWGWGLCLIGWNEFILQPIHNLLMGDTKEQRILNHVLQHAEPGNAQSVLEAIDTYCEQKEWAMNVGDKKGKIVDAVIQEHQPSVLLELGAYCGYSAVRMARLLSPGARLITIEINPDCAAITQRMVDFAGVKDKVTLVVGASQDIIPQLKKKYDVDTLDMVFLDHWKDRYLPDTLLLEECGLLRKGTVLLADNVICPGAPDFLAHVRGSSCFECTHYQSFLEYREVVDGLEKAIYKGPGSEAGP

[3] = target: 5-hydroxytryptamine isoform 1d (Homo sapiens, UniProt P28221); experiment: 5-hydroxytryptamine 1d inhibition; type: binding
[4] = tested on: dopamine receptor; experiment: Dopamine receptor binding
[5] = tested on: adrenergic receptors; experiment: Adrenergic receptor inhibition; type: binding
[6] = 0.3 mg/kg i.p., 45 minutes after administration
[7] = 0.3 mg/kg i.p., 3 hours after administration
[8] = 1 mg/kg i.p., 45 minutes after administration
[9] = 1 mg/kg i.p., 3 hours after administration
[10] = 3 mg/kg i.p., 45 minutes after administration
[11] = 3 mg/kg i.p., 3 hours after administration
[12] = 10 mg/kg i.p., 45 minutes after administration
[13] = 10 mg/kg i.p., 3 hours after administration

Chain of 5-hydroxytryptamine isoform 1d (P28221 whole entry, canonical isoform): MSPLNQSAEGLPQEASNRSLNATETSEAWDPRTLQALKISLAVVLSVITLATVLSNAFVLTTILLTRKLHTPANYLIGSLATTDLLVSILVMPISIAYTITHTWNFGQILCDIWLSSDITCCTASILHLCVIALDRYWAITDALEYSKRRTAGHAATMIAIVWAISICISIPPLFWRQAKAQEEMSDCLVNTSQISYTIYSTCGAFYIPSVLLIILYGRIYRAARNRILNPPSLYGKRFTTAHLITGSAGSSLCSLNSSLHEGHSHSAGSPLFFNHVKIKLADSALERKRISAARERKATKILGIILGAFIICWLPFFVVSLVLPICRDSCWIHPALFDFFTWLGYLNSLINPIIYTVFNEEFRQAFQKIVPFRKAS

## COc1cc2c(cc1OC)[C@H]1C[C@H](O)[C@@H](CC(C)C)CN1CC2 (single isomer, unassigned) [Isomer B]
[1]; locomotor studies carried out on rats
  sedative effect: no sedative effects were observed
[1]; [6]
  Inactivity Duration: 346.1 ± 36.9 s
  Large movements Duration: 72.0 ± 9.6 s
  Large movements Occurrence: 268 ± 36
[1]; [7]
  Inactivity Duration: 566.4 ± 44.3 s
  Large movements Duration: 28.9 ± 9.2 s
  Large movements Occurrence: 101 ± 29
[1]; [8]
  Inactivity Duration: 334.0 ± 23.2 s
  Large movements Duration: 87.0 ± 7.6 s
  Large movements Occurrence: 297 ± 22
[1]; [9]
  Inactivity Duration: 525.8 ± 28.6 s
  Large movements Duration: 34.5 ± 6.2 s
  Large movements Occurrence: 125 ± 18
[1]; [10]
  Inactivity Duration: 342.2 ± 33.3 s
  Large movements Duration: 89.1 ± 12.4 s
  Large movements Occurrence: 313 ± 38
[1]; [11]
  Inactivity Duration: 530.5 ± 38.0 s
  Large movements Duration: 31.1 ± 6.5 s
  Large movements Occurrence: 113 ± 17
[1]; [12]
  Inactivity Duration: 333.1 ± 26.9 s
  Large movements Duration: 84.0 ± 11.2 s
  Large movements Occurrence: 298 ± 37
[1]; [13]
  Inactivity Duration: 515.0 ± 53.0 s
  Large movements Duration: 30.9 ± 6.4 s
  Large movements Occurrence: 120 ± 26
[1]; rats, 0.3, 1, 3 and 10 mg/kg i.p., 45 minutes and 3 hours after administration
  sedative effect: no sedative effects at any time
[2]
  inhibitory activity against catechol O-methyl transferase (COMT): no inhibitory activity
[3]
  inhibitory activity against 5-hydroxytryptamine isoform 1d: no inhibitory activity
[4]
  dopamine receptor binding activity: only weak or non-existent
[5]
  inhibition of the adrenergic receptors: either weakly active or inactive
